Reference: patent US20230375576A1, “METHODS FOR THE TREATMENT OF FAMILIAL HETEROZYGOUS AND HOMOZYGOUS HYPERCHOLESTEROLEMIA WITH CYCLODEXTRINS” (Beren Therapeutics P.B.C., priority 2021, published 2023)
Entries after “also recorded” stand apart in the source; their conditions may differ.

Tests used:
[1] = Cholesterol crystal dissolution capacity in plasma of HoFH patients (D6-labeled cholesterol in filtrate, GC-MS); conditions: human plasma from HoFH patients; D6-labeled cholesterol crystals added; compared to control group; FIG. 1A
Description: D6-labeled cholesterol crystals were added to human plasma collected from homozygous familial hypercholesterolemia (HoFH) patients treated with HPBCD (2-hydroxypropyl-beta-cyclodextrin). The reaction mixtures were filtered to remove crystals and the filtrate was assayed for the presence of D6-labeled cholesterol using gas chromatography-mass spectroscopy (GC-MS). Cholesterol measured in the filtrate indicated the ability of HPBCD (2-hydroxypropyl-beta-cyclodextrin) to dissolve cholesterol crystals.

ABCA1 = assay: mRNA expression of ABCA1 in whole blood from HoFH patients; type: cell-based, human; conditions: 1.2 mM HPBCD, 6 hours, normalized to saline control, FIG. 1B
Description: This example aims to investigate the effects of HPBCD (2-hydroxypropyl-beta-cyclodextrin) on cholesterol efflux capacity in HoFH patients. HPBCD was added to whole blood obtained from HoFH patients at concentration of 1.2 mM. Untreated samples were used as control. The mixtures were incubated for 6 hours. Total mRNA was isolated and mRNA expression levels were measured. Data is shown as the level of gene expression normalized to saline control.

Ldlr−/− mice = assay: Effect on liver weight in Ldlr−/− mouse model; type: in vivo; conditions: Ldlr−/− mice on Western diet; 2 g/kg subcutaneously after five weeks; livers weighed up to 4 weeks post-HPBCD; versus untreated mice; FIG. 3
Description: To evaluate the effect of HPBCD (2-hydroxypropyl-beta-cyclodextrin) on liver weight, experiments using Ldlr−/− mice were designed as described in FIGS. 2A and 2B. The mice were fed normal chow diet (NC) or high-fat (42%), high-cholesterol (1.2) diet Western diet (WD) as described in Table 1 and Table 2. After five weeks, the mice were subcutaneously injected with 2 g/kg […]. The livers were excised and weighed after five weeks (Group 1, 2, 6), six weeks (Group 3), seven weeks (Group 4), and nine weeks (Group 5), respectively. [table] [table]

CC(O)COC[C@H]1O[C@@H]2O[C@H]3[C@H](O)[C@@H](O)[C@@H](O[C@H]4[C@H](O)[C@@H](O)[C@@H](O[C@H]5[C@H](O)[C@@H](O)[C@@H](O[C@H]6[C@H](O)[C@@H](O)[C@@H](O[C@H]7[C@H](O)[C@@H](O)[C@@H](O[C@H]8[C@H](O)[C@@H](O)[C@@H](O[C@H]1[C@H](O)[C@H]2O)O[C@@H]8COCC(C)O)O[C@@H]7COCC(C)O)O[C@@H]6COCC(C)O)O[C@@H]5COCC(C)O)O[C@@H]4COCC(C)O)O[C@@H]3COCC(C)O (stereo partly drawn) [HPBCD, 2-hydroxypropyl-beta-cyclodextrin]
cholesterol crystal dissolution [1]: significantly increased | mRNA expression level of ABCA1 (ABCA1): significant induction | liver weight (Ldlr−/− mice): inhibits increase of liver weight; also recorded: did not show any further increase in liver weight
